Reference: the Deep4Chem optical property database
One block for each compound: values may come before it.

Test: solvent given as SMILES

SMILES: CCCCN1/C(=C\c2c(-c3ccc(N(C)C)cc3)c(=O)c2=O)C=Cc2ccccc21
fluorescence lifetime (in C1CCCCC1): 1.06 ns
fluorescence lifetime (in Cc1ccccc1): 2.99 ns
fluorescence lifetime (in ClCCl): 0.6 ns

SMILES: COc1cc(N(CC(=O)[O-])CC(=O)[O-])c2ncccc2c1
fluorescence lifetime (in O): 0.84 ns

SMILES: Nc1cccc2cn[nH]c12
fluorescence lifetime (in CC#N): 4.63 ns
fluorescence lifetime (in CO): 1.69 ns
fluorescence lifetime (in O): 1.74 ns

SMILES: [NH3+]c1cc([NH3+])cc(-c2[nH+]c3ccccc3s2)c1
fluorescence lifetime (in O): 0.52 ns

SMILES: NCCc1c[nH]c2ccc(O)cc12
fluorescence lifetime (in CC#N): 4.1 ns
fluorescence lifetime (in CC(C)O): 4.28 ns
fluorescence lifetime (in CO): 4.04 ns
fluorescence lifetime (in O): 3.94 ns

SMILES: Cc1cc2c(o1)c(C)cc1ccc(=O)oc12
fluorescence lifetime (in C1CCCCC1): 0.02 ns
fluorescence lifetime (in C1COCCO1): 0.02 ns
fluorescence lifetime (in CC#N): 0.02 ns
fluorescence lifetime (in CCO): 2.3 ns
fluorescence lifetime (in OCC(F)(F)F): 2.8 ns

SMILES: CS1(C)C(/C=C/C2=C(c3ccc(C(=O)O)cc3)C(=C/C=C3/N(CCCCS(=O)(=O)[O-])c4ccccc4S3(C)C)/CCC2)=[N+](CCCCS(=O)(=O)[O-])c2ccccc21
fluorescence lifetime (in CC(C)=O): 1.08 ns
fluorescence lifetime (in CCO): 0.93 ns
fluorescence lifetime (in CO): 0.72 ns
fluorescence lifetime (in CS(C)=O): 1.26 ns
fluorescence lifetime (in ClC(Cl)Cl): 1.31 ns
fluorescence lifetime (in ClCCl): 1.19 ns
fluorescence lifetime (in O): 0.33 ns

SMILES: C[Si](C)(C)C#CC(C#C[Si](C)(C)C)=Cc1ccc(C=C(C#C[Si](C)(C)C)C#C[Si](C)(C)C)s1
fluorescence lifetime (in ClC(Cl)Cl): 0.3 ns

SMILES: COc1ccc(/C=C/C2=[O+][B-](F)(F)OC(/C=C/c3ccc(OC)c4ccccc34)=C2c2ccccc2)c2ccccc12
fluorescence lifetime (in CC#N): 0.63 ns
fluorescence lifetime (in CC(C)=O): 1.02 ns
fluorescence lifetime (in CCOC(C)=O): 1.28 ns
fluorescence lifetime (in CCOCC): 1.12 ns
fluorescence lifetime (in ClC(Cl)(Cl)Cl): 0.94 ns
fluorescence lifetime (in ClCCl): 1.91 ns

SMILES: COc1ccc(C(=Cc2ccc(C=O)cc2)c2ccc(OC)cc2)cc1
fluorescence lifetime (in C1CCOC1): 6.7 ns

SMILES: c1ccc(-c2ccnc(-c3ccccc3)n2)cc1
fluorescence lifetime (in ClC(Cl)Cl): 0.6 ns

SMILES: CC(C)[Si](C#CC1=CC2=c3cc(C#C[Si](C(C)C)(C(C)C)C(C)C)c4nc(C(F)(F)C(F)(F)C(F)(F)F)nc5c(C#C[Si](C(C)C)(C(C)C)C(C)C)cc(c3c54)C3=CC(C#C[Si](C(C)C)(C(C)C)C(C)C)=C4N=C(C(F)(F)C(F)(F)C(F)(F)F)N=C1C4C32)(C(C)C)C(C)C (stereo unspecified)
fluorescence lifetime (in C1CCOC1): 2 ns

SMILES: COc1ccc(-n2c(C)ccc2C)cc1
fluorescence lifetime (in CC#N): 5 ns

SMILES: Cc1cc2c(ccc3c[n+](C)c(C)cc32)c[n+]1C
fluorescence lifetime (in CC#N): 6.1 ns

SMILES: CC1(C)c2ccccc2N(c2ccccc2)c2ccc(-c3ccc(-c4ccc5c(c4)C(C)(C)c4ccccc4N5c4ccccc4)c4nsnc34)cc21
fluorescence lifetime (in c1ccc2c(c1)c1ccccc1n2-c1ccc(-c2ccc(-n3c4ccccc4c4ccccc43)cc2)cc1): 7.2 ns

SMILES: O=C1c2ccccc2-c2ccc(N3CCN(c4ccccc4)CC3)c3cccc1c23
fluorescence lifetime (in C1CCCCC1): 7.85 ns
fluorescence lifetime (in C1CCOC1): 2.59 ns
fluorescence lifetime (in C1COCCO1): 8.98 ns
fluorescence lifetime (in CC1COC(=O)O1): 0.09 ns
fluorescence lifetime (in CC#N): 0.03 ns
fluorescence lifetime (in CC(C)=O): 0.09 ns
fluorescence lifetime (in CCCCCCCCO): 0.29 ns
fluorescence lifetime (in CCCCCO): 0.22 ns
fluorescence lifetime (in CCCCO): 0.16 ns
fluorescence lifetime (in CCCO): 0.22 ns
fluorescence lifetime (in CCO): 0.07 ns
fluorescence lifetime (in CCOC(C)=O): 2 ns
fluorescence lifetime (in CN(C)C=O): 0.06 ns
fluorescence lifetime (in CO): 0.03 ns
fluorescence lifetime (in CS(C)=O): 0.06 ns
fluorescence lifetime (in Cc1ccccc1): 9.06 ns
fluorescence lifetime (in ClC(Cl)Cl): 8.88 ns

SMILES: Cn1ccc(-c2nc3ccccc3nc2/C=C/N2CCCC2)c1
fluorescence lifetime (in C1CCCCC1): 1.87 ns
fluorescence lifetime (in C1CCOC1): 6.61 ns
fluorescence lifetime (in CC#N): 5.96 ns
fluorescence lifetime (in CC(C)=O): 6.72 ns
fluorescence lifetime (in CCO): 0.39 ns
fluorescence lifetime (in CO): 0.12 ns
fluorescence lifetime (in CS(C)=O): 5.54 ns
fluorescence lifetime (in Cc1ccccc1): 5.1 ns
fluorescence lifetime (in ClCCl): 8.33 ns

SMILES: CCCN1/C(=C\c2c(-c3ccc(N(C)C)cc3)c(=O)c2=O)C=Cc2ccccc21
fluorescence lifetime (in C1CCCCC1): 1.01 ns
fluorescence lifetime (in Cc1ccccc1): 2.46 ns
fluorescence lifetime (in ClCCl): 0.09 ns

SMILES: COc1cc(-c2cc(-c3ccc(C)cc3)nc3c(C#N)c(N4CCCC4)nc(N)c23)cc(OC)c1OC
fluorescence lifetime (in CC#N): 10.7 ns
fluorescence lifetime (in CC(C)=O): 10.4 ns
fluorescence lifetime (in CC(C)O): 10.3 ns
fluorescence lifetime (in CO): 8.46 ns
fluorescence lifetime (in ClC(Cl)Cl): 12.8 ns
fluorescence lifetime (in ClCCl): 12.6 ns
fluorescence lifetime (in c1ccccc1): 12.5 ns

SMILES: c1ccc(-c2cnc3nn4ccccc4c3c2)cc1
fluorescence lifetime (in C1CCOC1): 4.7 ns

SMILES: C=CCOc1nnc(OCCC(F)(F)C(F)(F)C(F)(F)C(F)(F)C(F)(F)C(F)(F)C(F)(F)C(F)(F)F)nn1
fluorescence lifetime (in ClCCl): 63.4 ns
fluorescence lifetime (in OCC(F)(F)F): 8.5 ns

SMILES: CN(C)c1ccc(C2=Cc3ccccc3P2(=O)c2ccccc2)cc1 (stereo unspecified)
fluorescence lifetime (in ClCCl): 6.1 ns

SMILES: COc1ccc(-c2c3ccc([nH]3)c3nc(c(-c4ccc([N+](=O)[O-])cc4)c4ccc([nH]4)c4ccc([nH]4)c(-c4ccc(OC)cc4)c4ccc2o4)C=C3)cc1
fluorescence lifetime (in C1CCOC1): 0.66 ns
fluorescence lifetime (in Cc1ccccc1): 4.33 ns
fluorescence lifetime (in c1ccccc1): 4.2 ns

SMILES: Cc1cc(-c2nc(-c3ccccc3)nc(-c3ccccc3)n2)ccc1-n1c2ccccc2c2cc3c(cc21)C1c2ccccc2C3c2ccccc21
fluorescence lifetime (in O=P(c1ccccc1)(c1ccccc1)c1ccccc1Oc1ccccc1P(=O)(c1ccccc1)c1ccccc1): 10.6 ns

SMILES: Cc1ccc(-c2ccc(/C=C/c3ccc(F)cc3)cn2)nc1
fluorescence lifetime (in CC#N): 0.99 ns

SMILES: CC(C)(C)c1ccc(/C=C/c2ccc(N(c3ccc(/C=C/c4ccc(C(C)(C)C)cc4)cc3)c3ccc(-c4nc5ccccc5nc4-c4ccc(N(c5ccc(/C=C/c6ccc(C(C)(C)C)cc6)cc5)c5ccc(/C=C/c6ccc(C(C)(C)C)cc6)cc5)cc4)cc3)cc2)cc1
fluorescence lifetime (in C1CCOC1): 2.3 ns

Now from value to compound:

fluorescence lifetime (in ClCCl): 5.4 ns
SMILES: N#Cc1ccc(-n2c(-c3ccc(-c4ccc(N(c5ccccc5)c5ccccc5)cc4)s3)nc3c4ccccc4c4ccccc4c32)c2ccccc12

fluorescence lifetime (in C1CCCCC1): 2.9 ns
fluorescence lifetime (in CS(C)=O): 1.6 ns
fluorescence lifetime (in ClC(Cl)Cl): 2.4 ns
SMILES: CN(C)c1ccc(-c2cc(-c3ccc4ccccc4c3)nc(-c3ccccc3)n2)cc1

fluorescence lifetime (in CC1CCCCC1): 0.3 ns
fluorescence lifetime (in CC#N): 1.44 ns
fluorescence lifetime (in CO): 1.33 ns
SMILES: COC(=O)C(NC(=O)OC(C)(C)C)c1ccc2oc(-c3ccc(O)cc3O)nc2c1 (stereo unspecified)

fluorescence lifetime (in C1CCOC1): 2.32 ns
fluorescence lifetime (in C1COCCO1): 2.29 ns
fluorescence lifetime (in CC#N): 2.29 ns
fluorescence lifetime (in CC(C)O): 2 ns
fluorescence lifetime (in CCO): 1.88 ns
fluorescence lifetime (in CCOC(C)=O): 2.34 ns
fluorescence lifetime (in CN(C)C=O): 2.35 ns
fluorescence lifetime (in CO): 1.68 ns
fluorescence lifetime (in CS(C)=O): 2.49 ns
fluorescence lifetime (in O): 3.2 ns
SMILES: NS(=O)(=O)c1ccc(N2N=C(c3ccc(O)cc3)CC2c2ccc(Cl)cc2)cc1 (stereo unspecified)

fluorescence lifetime (in ClC(Cl)Cl): 1.1 ns
SMILES: CCCCN1C(=O)c2cc(Br)c3c4c(Br)c(Br)c5c6c(cc(Br)c(c7c(Br)c(Br)c(c2c37)C1=O)c64)C(=O)N(CCCC)C5=O

fluorescence lifetime (in ClC(Cl)Cl): 1.35 ns
SMILES: CCCCc1cc(-c2cccc(COC)c2)oc1-c1cccc(-c2cc(CCCC)c(-c3cccc(-c4oc(-c5cccc(-c6oc(-c7cccc(COC)c7)cc6CCCC)c5)cc4CCCC)c3)o2)c1

fluorescence lifetime (in CO): 0.26 ns
fluorescence lifetime (in ClC(Cl)Cl): 1.65 ns
SMILES: CC[n+]1c(C=C2C(=O)C(C=C3N(C)c4ccc(Cl)cc4C3(C)C)=C2[O-])sc2ccccc21

fluorescence lifetime (in CC#N): 1.94 ns
fluorescence lifetime (in CCCCCC): 5 ns
fluorescence lifetime (in CO): 1.79 ns
fluorescence lifetime (in ClC(Cl)Cl): 2.54 ns
SMILES: c1ccc2c(c1)cc(-c1cc(-c3nccs3)nc(-c3nccs3)c1)c1ccccc12

fluorescence lifetime (in CC#N): 2.43 ns
fluorescence lifetime (in CCCCCCCCCCCCCCCC): 4.97 ns
fluorescence lifetime (in CO): 5.24 ns
fluorescence lifetime (in ClC(Cl)Cl): 5.86 ns
fluorescence lifetime (in c1ccccc1): 5.11 ns
SMILES: CC(C)(C)C1Nc2ccccc2C(=O)N1Cc1ccccc1 (stereo unspecified)

fluorescence lifetime (in C1CCOC1): 1 ns
SMILES: O=C1c2cc(-c3ccccc3)ccc2-c2ccc(-c3ccccc3)cc21

fluorescence lifetime (in C1CCCCC1): 23.3 ns
fluorescence lifetime (in CC#N): 25.2 ns
fluorescence lifetime (in CO): 24.4 ns
fluorescence lifetime (in ClCCl): 21.2 ns
SMILES: COc1c2ccccc2c(OC)c2c1c1c(F)cccc1n2C

fluorescence lifetime (in ClC(Cl)Cl): 8.07 ns
SMILES: CCN(CC)/C(C)=N\c1ccc2c3c(cccc13)C(=O)c1ccccc1-2

fluorescence lifetime (in ClCCl): 0.84 ns
SMILES: CC(C)(C)c1ccc2c(c1)c1cc(C(C)(C)C)ccc1n2-c1ccc(C#Cc2ccc3c4ccc(C#Cc5ccc(C=O)cc5)cc4n(-c4ccc(C(F)(F)F)cc4)c3c2)cc1

fluorescence lifetime (in ClCCl): 2.01 ns
SMILES: c1ccc(N2N=C(c3cccc4ccccc34)CC2c2ccc3ccc4cccc5ccc2c3c45)cc1 (stereo unspecified)

fluorescence lifetime (in ClCCl): 0.97 ns
SMILES: Oc1ccc2ccccc2c1-c1nc2c(c3c1-c1ccccc1CC3)-c1ccccc1CC2

fluorescence lifetime (in ClC(Cl)Cl): 5.4 ns
SMILES: CCCCCCCCCCCCOc1cc2c3c(ccc4c5c(OCCCCCCCCCCCC)cc6c7c(ccc(c1c34)c75)C(=O)N(C1CCCCC1)C6=O)C(=O)N(C1CCCCC1)C2=O

fluorescence lifetime (in C1CCCCC1): 2.7 ns
fluorescence lifetime (in CCOC(C)=O): 0.911 ns
SMILES: CC1=[N+]2C(=C(Oc3ccc4c(c3)CC[C@@H]3[C@@H]4CC[C@]4(C)C(=O)CC[C@@H]34)c3ccc(C)n3[B-]2(F)F)C=C1c1cc2n(c1)[B-](F)(F)[N+]1=CC=CC1=C2c1c(C)cc(C)cc1C

fluorescence lifetime (in ClCCl): 2.96 ns
SMILES: Nc1ccc2c(ccc3[n+]2[B-](F)(F)n2c-3cc3c4ccccc4c4ccccc4c32)c1

fluorescence lifetime (in C1CCCCC1): 25 ns
fluorescence lifetime (in CC#N): 25.3 ns
fluorescence lifetime (in CO): 26.7 ns
fluorescence lifetime (in ClCCl): 23.2 ns
SMILES: COc1c2ccccc2c(OC)c2c1c1cc(F)ccc1n2C

fluorescence lifetime (in ClCCl): 6.1 ns
SMILES: F[B-]1(F)n2c(c3c(c2-c2ccccc2)C2C=CC3CC2)C(c2ccccc2)=C2C3=C(C(c4ccccc4)=[N+]21)C1C=CC3CC1 (stereo unspecified)
